IC50 data for 34 molecules are collected here from patent US11414395B2, “Heterocyclic compounds as modulators of mGluR7” (PRAGMA Therapeutics, priority 2017, dated 2022).

Where only a bound is given, the exact number is not on record here.

This assay concerns the target human mGluR7 (Homo sapiens (Human), UniProt Q14831). In words: Inositol monophosphate production assay (IP1 assay), inhibition of L-AP4 response. Type of assay: cell-based. The following applies: mean IC50 from at least two independent experiments; HEK293 cells transiently transfected with mGluR7, Gqtop and EAAC1; IP1 production vs EC80 L-AP4. The source says:
Inositol Monophosphate Production Assay (IP1 Assay):
HEK293 cells were transiently transfected with mGluR7 by electroporation and seeded in a poly-ornithine coated 96-well plate at the density of 150 000 cells/well. To allow the monitoring of receptor activity through measurements of inositol monophosphate (IP1) production, mGluR7 was transfected with a chimeric Gq/Gi protein (Gqtop). and was also co-transfected with EAAC1, a glutamate transporter, to avoid influence of extracellular glutamate. Cells were cultured in Dulbecco's Modified Eagle Medium (DMEM, Invitrogen, Cergy Pontoise, France), supplemented with 10% of Fetal Bovine Serum (FBS). Medium was changed by Glutamax™ (Invitrogen, Cergy Pontoise, France) to reduce extracellular glutamate concentration 3 hours before stimulation
IP1 production was determined using the IP-One HTRF kit (CisBio Bioassays), a competitive immunoassay using cryptate-labeled anti-IP1 antibody and d2-labeled IP, according to the manufacturer's recommendations. All points were realized in triplicate.
Data were analyzed with Prism 6 software (GraphPadSoftware, San Diego, Calif.). Typically, in each experiment, a four-parameter concentration-response curve equation was used to fit data and potency (IC50) is estimated as logarithms (log IC50). Data were calculated as % of the control mGluR7 agonist L-AP4 response, defined as the response that is generated upon addition of an EC80-equivalent concentration of L-AP4.
The Table 2 below represents the mean IC50 obtained from at least two independent experiments.

human mGluR7, sequence (Q14831 35-915): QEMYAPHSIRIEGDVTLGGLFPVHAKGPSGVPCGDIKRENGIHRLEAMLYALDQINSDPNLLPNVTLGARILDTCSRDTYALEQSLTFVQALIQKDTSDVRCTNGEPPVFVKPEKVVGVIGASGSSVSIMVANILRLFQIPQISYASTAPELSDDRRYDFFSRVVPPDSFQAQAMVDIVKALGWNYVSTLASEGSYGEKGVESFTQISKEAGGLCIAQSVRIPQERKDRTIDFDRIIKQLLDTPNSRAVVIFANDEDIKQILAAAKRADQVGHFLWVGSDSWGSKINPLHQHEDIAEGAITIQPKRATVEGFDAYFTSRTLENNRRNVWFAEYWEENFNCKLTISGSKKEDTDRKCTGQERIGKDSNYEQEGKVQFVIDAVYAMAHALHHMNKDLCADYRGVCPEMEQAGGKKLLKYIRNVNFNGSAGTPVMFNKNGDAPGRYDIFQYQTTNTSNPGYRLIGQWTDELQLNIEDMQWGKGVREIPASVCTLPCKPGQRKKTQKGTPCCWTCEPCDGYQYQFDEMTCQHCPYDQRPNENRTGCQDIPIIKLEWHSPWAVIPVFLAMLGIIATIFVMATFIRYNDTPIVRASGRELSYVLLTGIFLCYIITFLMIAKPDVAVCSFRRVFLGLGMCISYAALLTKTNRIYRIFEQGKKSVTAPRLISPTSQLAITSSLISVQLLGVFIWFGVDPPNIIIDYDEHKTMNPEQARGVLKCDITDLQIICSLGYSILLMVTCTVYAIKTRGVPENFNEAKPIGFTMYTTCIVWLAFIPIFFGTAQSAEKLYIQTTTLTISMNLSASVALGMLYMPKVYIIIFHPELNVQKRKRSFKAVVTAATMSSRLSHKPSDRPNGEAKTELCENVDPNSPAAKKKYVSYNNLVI

As a reminder, the IC50 is the midpoint of a concentration-inhibition curve. The molecule `Cc1ccc(C2CCc3c(cnn(-c4cccc(C#N)n4)c3=O)C2)c(C)c1` (stereo not shown) [Example 21, 6-(6-(2,4-dimethylphenyl)-1-oxo-5,6,7,8-tetrahydrophthalazin-2(1H)-yl)picolinonitrile] displayed a 50% inhibitory concentration (IC50) of less than 500 nM. As for `Cc1ccc(C2CCc3c(cnn(-c4ccc(C#N)cn4)c3=O)C2)c(C)c1` (stereo not shown) [Example 22, 6-(6-(2,4-dimethylphenyl)-1-oxo-5,6,7,8-tetrahydrophthalazin-2(1H)-yl)nicotinonitrile], the half-inhibitory concentration (IC50) was less than 500 nM. The molecule `Cc1ccc(C2CCc3c(cnn(-c4cc(C#N)ccn4)c3=O)C2)c(C)c1` (stereo not shown) [Example 23, 2-(6-(2,4-dimethylphenyl)-1-oxo-5,6,7,8-tetrahydrophthalazin-2(1H)-yl)isonicotinonitrile] registered a concentration for half-maximal inhibition (IC50) of less than 500 nM. In the case of `Cc1ccc(C2CCc3c(cnn(-c4ncccc4C#N)c3=O)C2)c(C)c1` (stereo not shown) [Example 24, 2-(6-(2,4-dimethylphenyl)-1-oxo-5,6,7,8-tetrahydrophthalazin-2(1H)-yl)nicotinonitrile] it was less than 500 nM; in that of `Cc1ccc(C2CCc3c(cnn(-c4ccc(O)cn4)c3=O)C2)c(C)c1` (stereo not shown) [Example 25, 6-(2,4-dimethylphenyl)-2-(5-hydroxypyridin-2-yl)-5,6,7,8-tetrahydrophthalazin-1(2H)-one], less than 500 nM; in that of `Cc1ccc(C2CCc3c(cnn(-c4cc(O)ccn4)c3=O)C2)c(C)c1` (stereo not shown) [Example 26, 6-(2,4-dimethylphenyl)-2-(4-hydroxypyridin-2-yl)-5,6,7,8-tetrahydrophthalazin-1(2H)-one], less than 500 nM.

`COCc1ccc(-n2ncc3c(c2=O)CCC(c2ccc(C)cc2C)C3)nc1` (stereo not shown) [Example 27, 6-(2,4-dimethylphenyl)-2-(5-(methoxymethyl)pyridin-2-yl)-5,6,7,8-tetrahydrophthalazin-1(2H)-one] had an IC50 of less than 500 nM. For `Cc1ccc(C2CCc3c(cnn(-c4cccnc4)c3=O)C2)c(C)c1` (stereo not shown) [Example 28, 6-(2,4-dimethylphenyl)-2-(pyridin-3-yl)-5,6,7,8-tetrahydrophthalazin-1(2H)-one], the IC50 was less than 500 nM. Regarding `Cc1ccc(C2CCc3c(cnn(-c4ncccn4)c3=O)C2)c(C)c1` (stereo not shown) [Example 29, 6-(2,4-dimethylphenyl)-2-(pyrimidin-2-yl)-5,6,7,8-tetrahydrophthalazin-1(2H)-one], the half-maximal inhibitory concentration (IC50) is less than 500 nM.

Consider `Cc1ccc(C2CCc3c(cnn(-c4cnccn4)c3=O)C2)c(C)c1` (stereo not shown) [Example 30, 6-(2,4-dimethylphenyl)-2-(pyrazin-2-yl)-5,6,7,8-tetrahydrophthalazin-1(2H)-one], for which the IC50 was less than 500 nM. The molecule `Cc1ccc(C2CCc3c(cnn(-c4nccs4)c3=O)C2)c(C)c1` (stereo not shown) [Example 32, 6-(2,4-dimethylphenyl)-2-(thiazol-2-yl)-5,6,7,8-tetrahydrophthalazin-1(2H)-one] gave a 50% inhibitory concentration (IC50) of 500 to 1000 nM. `Cc1ccc(C2CCc3c(cnn(-c4cscn4)c3=O)C2)c(C)c1` (stereo not shown) [Example 33, 6-(2,4-dimethylphenyl)-2-(thiazol-4-yl)-5,6,7,8-tetrahydrophthalazin-1(2H)-one]: the IC50 is less than 500 nM. In the case of `Cc1ccc(C2CCc3c(cnn(-c4cn(C)cn4)c3=O)C2)c(C)c1` (stereo not shown) [Example 34, 6-(2,4-dimethylphenyl)-2-(1-methyl-1H-imidazol-4-yl)-5,6,7,8-tetrahydrophthalazin-1(2H)-one] it was 1000 to 30000 nM; in that of `COc1ccnc(-n2ncc3c(c2=O)CCC(c2ccc(C)cc2C)C3)n1` (stereo not shown) [Example 35, 6-(2,4-dimethylphenyl)-2-(4-methoxypyrimidin-2-yl)-5,6,7,8-tetrahydrophthalazin-1(2H)-one], less than 500 nM.

Turning to `Cc1ccc(C2CCc3c(cnn(-c4nc(C)cc(C)n4)c3=O)C2)c(C)c1` (stereo not shown) [Example 36, 6-(2,4-dimethylphenyl)-2-(4,6-dimethylpyrimidin-2-yl)-5,6,7,8-tetrahydrophthalazin-1(2H)-one], the 50% inhibitory concentration (IC50) lay within 1000 to 30000 nM. Molecule `Cc1ccc(C2CCc3c(cnn(-c4nccc(C5CC5)n4)c3=O)C2)c(C)c1` (stereo not shown) [Example 37, 2-(4-cyclopropylpyrimidin-2-yl)-6-(2,4-dimethylphenyl)-5,6,7,8-tetrahydrophthalazin-1(2H)-one] yielded an IC50 of less than 500 nM.

`COc1cccc(C2CCc3c(cnn(-c4ccc(O)cn4)c3=O)C2)c1C` (stereo not shown) [Example 38, 2-(5-hydroxypyridin-2-yl)-6-(3-methoxy-2-methylphenyl)-5,6,7,8-tetrahydrophthalazin-1(2H)-one] gave an IC50 of less than 500 nM.

Turning to `COc1cccc(C2CCc3c(cnn(-c4ccc(CO)cn4)c3=O)C2)c1C` (stereo not shown) [Example 39, 2-(5-(hydroxymethyl)pyridin-2-yl)-6-(3-methoxy-2-methylphenyl)-5,6,7,8-tetrahydrophthalazin-1(2H)-one], the concentration for half-maximal inhibition (IC50) was less than 500 nM. As for `COc1cccc(C2CCc3c(cnn(-c4ncccn4)c3=O)C2)c1C` (stereo not shown) [Example 40, 6-(3-methoxy-2-methylphenyl)-2-(pyrimidin-2-yl)-5,6,7,8-tetrahydrophthalazin-1(2H)-one], the half-inhibitory concentration (IC50) was less than 500 nM. As for `COc1cccc(C2CCc3c(cnn(-c4ncc(C)cn4)c3=O)C2)c1C` (stereo not shown) [Example 41, 6-(3-methoxy-2-methylphenyl)-2-(5-methylpyrimidin-2-yl)-5,6,7,8-tetrahydrophthalazin-1(2H)-one], the IC50 was less than 500 nM.

Molecule `COc1ccnc(-n2ncc3c(c2=O)CCC(c2cccc(OC)c2C)C3)n1` (stereo not shown) [Example 42, 6-(3-methoxy-2-methylphenyl)-2-(4-methoxypyrimidin-2-yl)-5,6,7,8-tetrahydrophthalazin-1(2H)-one] returned an IC50 of less than 500 nM. In the case of `COc1cccc(C2CCc3c(cnn(-c4ncc(Cl)cn4)c3=O)C2)c1C` (stereo not shown) [Example 43, 2-(5-chloropyrimidin-2-yl)-6-(3-methoxy-2-methylphenyl)-5,6,7,8-tetrahydrophthalazin-1(2H)-one], the IC50 is less than 500 nM.

The molecule `COc1cnc(-n2ncc3c(c2=O)CCC(c2cccc(OC)c2C)C3)cn1` (stereo not shown) [Example 44, 6-(3-methoxy-2-methylphenyl)-2-(5-methoxypyrazin-2-yl)-5,6,7,8-tetrahydrophthalazin-1(2H)-one] yielded an IC50 of less than 500 nM. In the case of `COc1cccc(C2CCc3c(cnn(-c4ncc(O)cn4)c3=O)C2)c1C` (stereo not shown) [Example 45, 2-(5-hydroxypyrimidin-2-yl)-6-(3-methoxy-2-methylphenyl)-5,6,7,8-tetrahydrophthalazin-1(2H)-one] it was less than 500 nM; in that of `COc1cccc(C2CCc3c(cnn(-c4nccc(N5CCOCC5)n4)c3=O)C2)c1C` (stereo not shown) [Example 46, 6-(3-methoxy-2-methylphenyl)-2-(4-morpholinopyrimidin-2-yl)-5,6,7,8-tetrahydrophthalazin-1(2H)-one], less than 500 nM; in that of `COc1ccc(C)c(C2CCc3c(cnn(-c4ncc(C)cn4)c3=O)C2)c1` (stereo not shown) [Example 47, 6-(5-methoxy-2-methylphenyl)-2-(5-methylpyrimidin-2-yl)-5,6,7,8-tetrahydrophthalazin-1(2H)-one], less than 500 nM. `COc1cnc(-n2ncc3c(c2=O)CCC(c2cc(OC)ccc2C)C3)nc1` (stereo not shown) [Example 48, 6-(5-methoxy-2-methylphenyl)-2-(5-methoxypyrimidin-2-yl)-5,6,7,8-tetrahydrophthalazin-1(2H)-one] registered a half-inhibitory concentration (IC50) of 500 to 1000 nM. Regarding `COc1ccc(C)c(C2CCc3c(cnn(-c4ncc(Cl)cn4)c3=O)C2)c1` (stereo not shown) [Example 49, 2-(5-chloropyrimidin-2-yl)-6-(5-methoxy-2-methylphenyl)-5,6,7,8-tetrahydrophthalazin-1(2H)-one], the IC50 is less than 500 nM. The molecule `Cc1ccc(C2CCc3c(cnn(-c4ccncc4)c3=O)C2)c(C)c1` (stereo not shown) [Example 50, 6-(2,4-dimethylphenyl)-2-(pyridin-4-yl)-5,6,7,8-tetrahydrophthalazin-1(2H)-one] returned an IC50 of less than 500 nM.

`Cc1ccc(C2CCc3c(cnn(-c4ncc(Cl)cn4)c3=O)C2)c(C)c1` (stereo not shown) [Example 51, 2-(5-chloropyrimidin-2-yl)-6-(2,4-dimethylphenyl)-5,6,7,8-tetrahydrophthalazin-1(2H)-one] registered an IC50 of less than 500 nM. The molecule `Cc1cnc(-n2ncc3c(c2=O)CCC(c2ccc(C)cc2C)C3)nc1` (stereo not shown) [Example 52, 6-(2,4-dimethylphenyl)-2-(5-methylpyrimidin-2-yl)-5,6,7,8-tetrahydrophthalazin-1(2H)-one] registered a half-maximal inhibitory concentration (IC50) of less than 500 nM. Take `COc1cnc(-n2ncc3c(c2=O)CCC(c2ccc(C)cc2C)C3)nc1` (stereo not shown) [Example 53, 6-(2,4-dimethylphenyl)-2-(5-methoxypyrimidin-2-yl)-5,6,7,8-tetrahydrophthalazin-1(2H)-one]: the IC50 was less than 500 nM. The molecule `Cc1ccc(C2CCc3c(cnn(-c4ncc(F)cn4)c3=O)C2)c(C)c1` (stereo not shown) [Example 54, 6-(2,4-dimethylphenyl)-2-(5-fluoropyrimidin-2-yl)-5,6,7,8-tetrahydrophthalazin-1(2H)-one] came in with a concentration for half-maximal inhibition (IC50) of less than 500 nM. As for `Cc1ccc(C2CCc3c(cnn(-c4ncc(C(F)(F)F)cn4)c3=O)C2)c(C)c1` (stereo not shown) [Example 55, 6-(2,4-dimethylphenyl)-2-(5-(trifluoromethyl)pyrimidin-2-yl)-5,6,7,8-tetrahydrophthalazin-1(2H)-one], the half-maximal inhibitory concentration (IC50) is less than 500 nM.
